{"source": "patent US8586547B2", "about": "“CDC45L peptides and vaccines including the same” (Oncotherapy Science, Inc., priority 2009, dated 2013)", "key": {"[1]": {"test_system": "C1R-A2402 cells pulsed with CDC45L derived peptides", "method": "The DCs were pulsed with 20 micro-g/mL of the candidate peptides in the presence of 4 micro-g/mL beta 2-microglobulin (Sigma-Aldrich) for 2 h at 37 degrees C. in AIM-V (Invitrogen) supplemented with 2% heat-inactivated autologous plasma. The cells were then irradiated (40 Gy) and incubated with the isolated CD8^+ T cells as described previously (Imai K et al., Clin Cancer Res 2008; 14:6487-95, Harao M et al., Int J Cancer 2008; 123:2616-25). Two additional stimulations with peptide-loaded autologous PHA-blasts were performed on days 7 and 14. The PHA-blasts were generated as described previously (Inoue M et al., Immunol Lett 2009; 126:67-72), and these PHA-blasts (5×10^5) were pulsed with 20 micro-g/mL peptides for 3 h, irradiated (100 Gy) and cultured with the 2×10^6 CD8^+ T cells in the presence of 10 ng/mL human recombinant IL-7 (Wako, Osaka, Japan). After 2 days, the cultures were supplemented with 20 IU/mL human recombinant IL-2 (PeproTec, Inc.).\nSix days after the last stimulation, the antigen-specific responses of the induced CTLs were investigated. Two additional weekly stimulations with peptide-loaded autologous PHA-blasts were carried out on day 7 and 14. Autologous CD 14^− CD8^− cells enriched with CD4^+ T cells were cultured with PHA (2 micro-g/mL) and human recombinant IL-2 (100 IU/mL) for 2 days, and cells were washed with PBS and cultured with human recombinant IL-2 (100 IU/mL) for additional three days. These PHA-blasts (5×10^5) were pulsed with 50 micro-g/mL peptides for 2 hours at 37 degrees C. in AIM-V (Invitrogen) supplemented with 2% heat-inactivated autologous plasma. The cells were then irradiated (100 Gy) and incubated with the 2×10^6 CD8^+ T cells. These cultures were set up in 24-well plates using the medium supplemented with 5 ng/mL human recombinant IL-7, IL-2, and IL-15. Six days after the last stimulation, the antigen-specific responses of the induced CTLs were investigated by an IFN-gamma ELISPOT assay, CD107a mobilization assay and ^51Cr release assay as described previously (Komori H et al. Clin Cancer Res 2006; 12: 2689-97) and below.\nThe frequency of cells producing interferon (IFN)-gamma per 1×10^5 CTLs upon stimulation with Lu99 cells (1×10^4/well) or peptide-pulsed C1R-A2402 and T2 cells (1×10^4/well) was analyzed by an ELISPOT assay (Human IFN-gamma ELISPOT kit, BD Biosciences) as previously described (Komori H et al., Clin Cancer Res 2006; 12:2689-97, Bourgault V I et al., Cancer Res 2004; 64:8761-6). The CTLs were co-cultured with cancer cells or peptide-pulsed C1R-A2402 and T2 cells as target cells (5×10^3/well) at the indicated effector-to-target ratio, and a standard ^51Cr-release assay was performed as described previously (Yokomine K et al., Int J Cancer 2009; 126:2153-63, Monji M et al., Clin Cancer Res 2004; 10:6047-57). The blocking of HLA-class I by anti-human HLA class I mAb, W6/32 (IgG2a, Santa Cruz Biotechnology), or HLA-class II by anti-human HLA-DR mAb (IgG2a, BD Biosciences), was performed as described previously (Komori H et al., Clin Cancer Res 2006; 12:2689-97, Makita M et al., Clin Cancer Res 2002; 8:2626-31)."}, "[2]": {"test_system": "Lu99 cells (CDC45L+, HLA-A24+)", "test": "51Cr-release assay against Lu99 lung cancer cells", "format": "cell-based, human", "protocol": "(§1) To knock down the expression of CDC45L in lung cancer cells, CDC45L small interfering (si) RNAs (human Cdc45 siRNA, sc-35044: a pool of three target-specific 20-25 nt siRNAs; Santa Cruz) were added at a final concentration of 150 nM to 40-60% confluent cells. Lipofectamine™ 2000 (Invitrogen) was used to transfect the siRNAs into cells, according to the manufacturer's instructions. GFP siRNAs were used as an irrelevant control. The treated cells were washed once with PBS, and adherent cells were collected at 72 h after transfection and used as target cells for the ^51Cr-release assay. To investigate the ability of siRNA to suppress CDC45L expression, western blot analysis was performed as described previously (Nakatsura T et al., Biochem Biophys Res Commun 2003; 306:16-25). Cancer cells were washed once with PBS at 48 h after transfection, and adherent cells were collected and lysed to analyze the expression levels of CDC45L for comparison with those of negative control cells. Beta-actin was used as the internal control. Rabbit polyclonal antibody reactive to CDC45L (sc-20685, Santa Cruz Biotechnology) was used as the primary antibody."}, "[3]": {"test_system": "T2 cells pulsed with the peptide", "details": "CTL lines from HLA-A2 positive healthy donor; not against HIV-A2 peptide-loaded T2 cells", "method": "PBMCs were isolated from HLA-A24 or HLA-A2 positive Japanese healthy donors and lung cancer patients, and the peripheral monocyte-derived dendritic cells (DCs) were generated as described previously (Harao M et al., Int J Cancer 2008; 123:2616-25, Naito K et al., Int J Oncol 2006; 28:1481-9). The DCs were pulsed with 20 micro-g/mL of the candidate peptides in the presence of 4 micro-g/mL beta 2-microglobulin (Sigma-Aldrich) for 2 h at 37 degrees C. in AIM-V (Invitrogen) supplemented with 2% heat-inactivated autologous plasma. The cells were then irradiated (40 Gy) and incubated with the isolated CD8^+ T cells as described previously (Imai K et al., Clin Cancer Res 2008; 14:6487-95, Harao M et al., Int J Cancer 2008; 123:2616-25). Two additional stimulations with peptide-loaded autologous PHA-blasts were performed on days 7 and 14. […]\nThe frequency of cells producing interferon (IFN)-gamma per 1×10^5 CTLs upon stimulation with Lu99 cells (1×10^4/well) or peptide-pulsed C1R-A2402 and T2 cells (1×10^4/well) was analyzed by an ELISPOT assay (Human IFN-gamma ELISPOT kit, BD Biosciences) as previously described (Komori H et al., Clin Cancer Res 2006; 12:2689-97, Bourgault V I et al., Cancer Res 2004; 64:8761-6). […]"}, "[4]": {"test_system": "Panc1 cells (CDC45L+, HLA-A2+, HLA-A24-)", "test": "51Cr-release assay against Panc1 cells", "details": "not inhibited by control anti-HLA-class II mAb", "method": "(§2) The CTLs were co-cultured with cancer cells or peptide-pulsed C1R-A2402 and T2 cells as target cells (5×10^3/well) at the indicated effector-to-target ratio, and a standard ^51Cr-release assay was performed as described previously (Yokomine K et al., Int J Cancer 2009; 126:2153-63, Monji M et al., Clin Cancer Res 2004; 10:6047-57). The blocking of HLA-class I by anti-human HLA class I mAb, W6/32 (IgG2a, Santa Cruz Biotechnology), or HLA-class II by anti-human HLA-DR mAb (IgG2a, BD Biosciences), was performed as described previously (Komori H et al., Clin Cancer Res 2006; 12:2689-97, Makita M et al., Clin Cancer Res 2002; 8:2626-31)."}, "[5]": {"test_system": "EBC-1 cells (CDC45L+, HLA-A24+)", "format": "cell-based, human", "protocol": "as §1"}, "[6]": {"test": "Immunization of BALB/c mice with peptides emulsified in incomplete Freund adjuvant", "format": "in vivo", "details": "long-term observation period, unpublished data"}, "[7]": {"test_system": "A549 cells (CDC45L+, HLA-A24-)", "format": "cell-based, human", "method": "as §2"}}, "note": "Read-outs that look alike come from different tables or passages of the source. Where a SMILES comes first, the peptide text is derived from it."}
{"smiles": "CC[C@H](C)[C@H](NC(=O)[C@H](CC(C)C)NC(=O)[C@H](C)NC(=O)[C@H](CC(=O)O)NC(=O)[C@H](CC(C)C)NC(=O)[C@H](Cc1ccccc1)NC(=O)[C@@H](N)CCCCN)C(=O)N[C@@H](CO)C(=O)N[C@@H](CC(C)C)C(=O)O", "note": "[CDC45L-A24-9-556-4] (H-KFLDALISL-OH)", "values": [{"measurement": "cytotoxic activity of CTL lines against peptide-pulsed C1R-A2402 cells", "setting": "[1]", "result": "exhibited cytotoxic activity"}, {"measurement": "cytotoxicity of CTL lines against C1R-A2402 cells loaded with the peptide", "setting": "[1]", "result": "not against"}, {"measurement": "cytotoxicity of peptide-induced CTLs against Lu99 cells transfected with CDC45L specific siRNAs", "setting": "[2]; CDC45L-, HLA-A24+ target cells", "result": "not against"}, {"measurement": "cytotoxicity of peptide-induced CTLs against Lu99 cells", "setting": "[2]; Lu99 cells and Lu99 cells transfected with control GFP siRNAs", "result": "exhibited cytotoxicity"}, {"measurement": "cytotoxicity of CTL lines against peptide-pulsed T2 cells", "setting": "[3]", "result": "exhibited cytotoxicity"}, {"measurement": "cytotoxicity against Panc1 cells in presence of blocking mAb against HLA-class I (W6/32)", "setting": "[4]", "result": "significantly inhibited"}]}
{"smiles": "CC[C@H](C)[C@H](NC(=O)[C@H](CC(C)C)NC(=O)[C@H](C)NC(=O)[C@H](CC(=O)O)NC(=O)[C@H](CC(C)C)NC(=O)[C@H](Cc1ccccc1)NC(=O)[C@@H](N)CCCCN)C(=O)N[C@@H](CO)C(=O)N[C@@H](CC(C)C)C(=O)N[C@@H](CC(C)C)C(=O)O", "note": "[CDC45L-A24-10-556-12] (H-KFLDALISLL-OH)", "values": [{"measurement": "cytotoxic activity of CTL lines against peptide-pulsed C1R-A2402 cells", "setting": "[1]", "result": "exhibited cytotoxic activity"}]}
{"smiles": "CC(C)C[C@H](NC(=O)[C@H](Cc1ccccc1)NC(=O)[C@@H](N)CCCCN)C(=O)N[C@@H](C)C(=O)N[C@@H](CO)C(=O)N[C@@H](CC(=O)O)C(=O)N[C@H](C(=O)N[C@H](C(=O)N[C@@H](Cc1ccccc1)C(=O)O)C(C)C)C(C)C", "note": "[CDC45L-A24-9-370-7] (H-KFLASDVVF-OH)", "values": [{"measurement": "cytotoxic activity of CTL lines against peptide-pulsed C1R-A2402 cells", "setting": "[1]", "result": "exhibited cytotoxic activity"}, {"measurement": "cytotoxicity of peptide-induced CTLs against EBC-1 cells", "setting": "[5]", "result": "exhibited cytotoxicity"}]}
{"smiles": "CC(C)C[C@H](NC(=O)[C@H](CCCCN)NC(=O)[C@H](Cc1ccccc1)NC(=O)[C@H](CCCNC(=N)N)NC(=O)[C@H](C)NC(=O)[C@H](C)NC(=O)[C@@H](NC(=O)[C@H](Cc1ccc(O)cc1)NC(=O)[C@@H](N)CO)[C@@H](C)O)C(=O)O", "note": "[CDC45L-A24-9-294-3] (H-SYTAARFKL-OH)", "values": [{"measurement": "cytotoxic activity of CTL lines against peptide-pulsed C1R-A2402 cells", "setting": "[1]", "result": "exhibited cytotoxic activity"}, {"measurement": "pathological changes, such as lymphocyte infiltration or tissue destruction", "setting": "[6]", "result": "did not exhibit pathological changes"}, {"measurement": "signs of autoimmune diseases, such as weight loss, diarrhea and skin abnormalities", "setting": "[6]", "result": "no signs of autoimmune diseases"}, {"measurement": "cytotoxicity of peptide-induced CTLs against EBC-1 cells", "setting": "[5]", "result": "exhibited cytotoxicity"}]}
{"smiles": "CC[C@H](C)[C@H](NC(=O)[C@H](CCC(N)=O)NC(=O)[C@@H](NC(=O)[C@H](CC(=O)O)NC(=O)[C@H](CC(N)=O)NC(=O)[C@H](Cc1ccc(O)cc1)NC(=O)[C@@H](N)C(C)C)[C@@H](C)O)C(=O)N[C@@H](CCCCN)C(=O)N[C@@H](CC(C)C)C(=O)O", "note": "[CDC45L-A24-9-109-2] (H-VYNDTQIKL-OH)", "values": [{"measurement": "cytotoxic activity of CTL lines against peptide-pulsed C1R-A2402 cells", "setting": "[1]", "result": "exhibited cytotoxic activity"}, {"measurement": "pathological changes, such as lymphocyte infiltration or tissue destruction", "setting": "[6]", "result": "did not exhibit pathological changes"}, {"measurement": "signs of autoimmune diseases, such as weight loss, diarrhea and skin abnormalities", "setting": "[6]", "result": "no signs of autoimmune diseases"}, {"measurement": "cytotoxicity of peptide-induced CTLs against Lu99 cells", "setting": "[2]", "result": "exhibited cytotoxicity"}, {"measurement": "cytotoxicity of peptide-induced CTLs against Lu99 cells transfected with CDC45L specific siRNAs", "setting": "[2]", "result": "not against"}, {"measurement": "cytotoxicity of peptide-induced CTLs against A549 cells", "setting": "[7]", "result": "not against"}]}
